Measured values: patent publication EP0946548B1, “NOVEL HETEROCYCLIC SUBSTITUTED PYRROLIDINE AMIDE DERIVATIVES” (Aventis Pharmaceuticals Inc., priority 1996, dated 1998)
Where a name gives a salt, the structure may show the parent alone.

Legend:
[1] = Metabolic stability: disappearance of test compound in guinea pig liver S9 supernatant; type: in vitro ADME; settings: initial concentration 10µM, 37°C
Method: (§1) One skilled in the art can determine the metabolic stability for the compounds of the present invention by determining the rate of disappearance of the test comopund in vitro in liver extracts. Metabolic stability is inversely related to the rate of metabolism which can be evaluated by determining the rate of disappearance of the test compounds during the initial linear phase of this assay.
(§2) This method is carried out using either S9 or S10 liver supernatant obtained from either guinea pig or human liver. Guinea pig liver S9 can be purchased from Vitro Technologies, Baltimore, Md and human liver S9 can be purchased from IIAM, Eaton Pa. Both guinea pig and human S10 supernatant can be prepared as follows: Combine weighed liver (fresh or stored at -80°C until use) and 1.15% aqueous potassium chloride solution (10-15 mL) and homogenize using a PCU Poltron from Kinematics of Switzerland or equivalent. Combine the homogenate with 1.15% aqueous potassium chloride solution, sufficient so that 3 mL of solution (total) is used per […] of liver, and mix. Store the above homogenate on ice at all times prior to use and at -80°C for long term storage.
(§3) Prepare a stock solution of each test compound in methanol, such that 0.1 mL of the stock solution when spiked into 16 mL of incubation mixture yields an initial concentration of 10µM of the test compound. Using this method the methanol content of the final incubation mixture will not exceed 1%.
(§4) Prepare the incubation mixture by combining in an incubation beaker S9 or S10 supernatant (4 mL); an aqueous solution containing 1.1 mM NADP, […] (4 units/2 mL)(0.32 mL); and an aqueous 0.1 M dipotassium monohydrogen phosphate solution (7.58 mL). Incubate the test compound by adding 0.1 mL of the stock solution of test compound to an incubation mixture, placed in a shaking water bath at 37°C.
(§5) To determine the rate of disappearance of test compounds in this assay, remove triplicate aliquots (0.5 mL) from the incubation beaker at 1, 3, 5, 10, 15, 30, and 60 minutes. Freeze all aliquots in a hexane/dry-ice slurry to instantly deactivate the enzymes. Store at -70°C until assayed. The concentration of test compound in each aliquot is determined by HPLC after preparation and as compared to a standard concentration of test compound, such preparations and determinations are well known and appreciated in the art. The rate of disappearance can be determined from the slope of the initial linear phase of this assay by graphing the change in concentration of test compound vs. time.
(§6) Calibration standards for Compound A were prepared as follows: dissolve 10 mg of Compound A (free base) in methanol (10 mL) to give a 1 mg/mL stock solution. Use acetonitrile to dilute 1 mL of stock solution to 10 mL to give a 100 µg/mL spiking standard and serially dilute the 100µg/mL solution with acetonitrile to give spiking standards having concentrations of 50, 25, 10, 5, 2.5, and 1.0 µg/mL. Calibration standards having concentrations of 10,000; 5,000; 2,500; 1,000; 500; 250; and 100 ng/mL are prepared in duplicated by adding 20 µL of each spiking standards to 0.2 mL of control S9 supernatant. Blanks and samples each receive 20µL of acetonitrile. Calibration standards and aliquots from that assay of compound A were prepared and evaluated as follows: charge a purple sulfonic acid solid phase extraction cartridge (Varian Inc., Harbor City, Ca.) with methanol (1 mL) and an aqueous 0.5% monochloroacetic acid solution (1 mL). Dilute the 0.2 mL of calibration standard or aliquot from the incubation with aqueous 5% acetonitrile (0.5 mL) and add to the charged cartridge. Pull the sample through the cartridge using vacuum, rinse with aqueous 0.5% monochloroacetic acid solution (1 mL), aqueous 50% acetonitrile solution (50 mM potassium hydroxide) (1 mL). Elute into HPLC vial using 60% methanol, 38% water, 1% acetic acid, 1% triethylamine (0.4 mL). […]

[2] = Metabolic stability: disappearance of test compound in human liver S9 supernatant; type: in vitro ADME; settings: initial concentration 10µM, 37°C
Method: as §1, §2, §3, §4, §5, §6

[3] = target: T1, human jejunal NK2 receptor (Homo sapiens, UniProt P21452); test: Antagonism of iodinated tachykinin binding to NK2 receptor (125iodohistidyl-1-neurokinin A) in HSKR-1 cells; settings: HSKR-1 cells (mouse 3T3 fibroblasts expressing the human jejunal NK2 receptor); mean of several experiments
T1 construct: expressed in transfected cells; host or cells: HSKR-1 cells (mouse 3T3 fibroblasts)
T1 sequence (P21452 1-398): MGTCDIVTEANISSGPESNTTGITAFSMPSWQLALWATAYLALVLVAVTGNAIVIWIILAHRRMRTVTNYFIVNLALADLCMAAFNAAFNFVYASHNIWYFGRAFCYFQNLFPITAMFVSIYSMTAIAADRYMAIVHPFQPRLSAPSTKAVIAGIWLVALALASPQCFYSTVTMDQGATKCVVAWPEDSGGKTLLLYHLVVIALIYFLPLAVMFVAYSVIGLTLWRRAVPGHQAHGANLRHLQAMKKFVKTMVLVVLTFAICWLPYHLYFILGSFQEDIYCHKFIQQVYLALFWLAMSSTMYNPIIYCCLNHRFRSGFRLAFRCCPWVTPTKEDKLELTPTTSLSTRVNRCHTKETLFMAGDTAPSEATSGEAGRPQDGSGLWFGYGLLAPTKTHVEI
Method: (§7) One skilled in the art can determine the NK1 receptor and NK2 receptor affinity in vitro as follows. The NK1 receptor affinity of tachykinin antagonists is evaluated in guinea pig lungs (Keystone Biologicals, Cleveland, OH) and affinity for the NK2 receptor is evaluated in HSKR-1 cells (which are mouse 3T3 fibroblasts expressing the human jejunal NK2 receptor). Tissues or cells are homogenized with a Polytron in 15 volumes of 50 mM Tris-HCl buffer (pH 7.4, 4°C) and centrifuged. The pellet is resuspended in Tris-HCl buffer and is centrifuged; the pellet is washed twice by resuspension. The final pellet is resuspended at a concentration of 40 mg/ml for tissues and 20 mg/ml for cells in incubation buffer and remains at room temperature for at least 15 min prior to use. Receptor binding is initiated by addition of 250 ul membrane preparation in duplicate to 0.1 nM of the following radioligands: ^125I-Bolton Hunter Lys-3 labeled substance P and ^125iodohistidyl-1-neurokinin A; in a final volume of 500 ul of buffer containing 50 mM Tris-HCl (pH 7.4 at room temperature), 0.1% bovine serum albumin, 2 mM mangenese chloride, 40 ug/ml bacitracin, 4 µg/ml leupeptin and chymostatin, 10 µM thiorphan and various doses of the putative tachykinin antagonists. […] Filter bound radioactivity is quantitated in a gamma counter. Nonspecific binding is defined as binding in the presence of 1 µM substance P or neurokinin A. Specific binding is calculated by subtracting nonspecific binding from total binding. Competition of iodinated SP or NKA binding by test compounds or standards is expressed as a percentage of this maximum binding. […]
(§8) Tachykinin receptor binding (IC50 values) for representative compounds of the present invention are found in Table 1. Specifically, NK1 and NK2 receptor binding values were determined by the method of present Example A. These values represent the mean of several experiments. […]

NK1 receptor = target: T2, NK1 receptor (Cavia porcellus, UniProt P30547); test: Antagonism of iodinated tachykinin binding to NK1 receptor (125I-Bolton Hunter Lys-3 labeled substance P); settings: guinea pig lung membranes; mean of several experiments
T2 construct: evaluated in guinea pig lungs (Keystone Biologicals, Cleveland, OH); tissue Keystone Biologicals, Cleveland, OH; host or cells: guinea pig lung membranes
Method: as §7, §8

T2 sequence (P30547 whole entry): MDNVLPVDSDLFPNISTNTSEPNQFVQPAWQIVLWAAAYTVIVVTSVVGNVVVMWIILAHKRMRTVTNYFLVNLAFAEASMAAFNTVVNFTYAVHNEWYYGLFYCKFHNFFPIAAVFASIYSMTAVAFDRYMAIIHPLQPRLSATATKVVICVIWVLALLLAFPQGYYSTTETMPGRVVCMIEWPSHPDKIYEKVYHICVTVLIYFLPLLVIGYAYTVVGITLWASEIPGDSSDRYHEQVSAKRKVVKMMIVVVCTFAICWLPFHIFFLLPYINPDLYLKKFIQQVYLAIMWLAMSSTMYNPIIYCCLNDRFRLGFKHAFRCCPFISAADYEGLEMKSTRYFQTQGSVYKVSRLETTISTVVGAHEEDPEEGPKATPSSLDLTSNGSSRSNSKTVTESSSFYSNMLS

Compound | Metabolic Stability in Guinea Pig Liver S9, concentration ([1]; Time 1 min) | Metabolic Stability in Guinea Pig Liver S9, concentration ([1]; Time 3 min) | Metabolic Stability in Guinea Pig Liver S9, concentration ([1]; Time 5 min) | Metabolic Stability in Guinea Pig Liver S9, concentration ([1]; Time 10 min) | Metabolic Stability in Guinea Pig Liver S9, concentration ([1]; Time 15 min) | Metabolic Stability in Guinea Pig Liver S9, concentration ([1]; Time 30 min) | Metabolic Stability in Guinea Pig Liver S9, concentration ([1]; Time 60 min) | Metabolic Stability in Human Liver S9, concentration ([2]; Time 1 min) | Metabolic Stability in Human Liver S9, concentration ([2]; Time 3 min) | Metabolic Stability in Human Liver S9, concentration ([2]; Time 5 min) | Metabolic Stability in Human Liver S9, concentration ([2]; Time 10 min) | Metabolic Stability in Human Liver S9, concentration ([2]; Time 15 min) | Metabolic Stability in Human Liver S9, concentration ([2]; Time 30 min) | Metabolic Stability in Human Liver S9, concentration ([2]; Time 60 min) | IC50 [3] | IC50 (NK1 receptor)
COc1ccc(-n2cnnn2)cc1C(=O)N1CC[C@](CCN2CCC(C(N)=O)(c3ccccc3)CC2)(c2ccc(Cl)c(Cl)c2)C1 [Compound A, (R)-1-(2-methoxy-5-(1H-tetrazol-1-yl)benzoyl)-3-(2-(4-phenyl-4-carboxamidopiperidin-1-yl)ethyl)-3-(3,4-dichlorophenyl)pyrrolidine hydrochloric acid salt] | 6.1 µg/mL | 6.6 µg/mL | 6.3 µg/mL | 6.1 µg/mL | 6.1 µg/mL | 6.3 µg/mL | 6.9 µg/mL | 6.6 µg/mL | 6.5 µg/mL | 6.6 µg/mL | 6.7 µg/mL | 6.6 µg/mL | 6.8 µg/mL | 6.9 µg/mL | 16.3 nM | 2.79 nM
COc1cc(C(=O)N2CCC(CCN3CCC(C(N)=O)(c4ccccc4)CC3)(c3ccc(Cl)c(Cl)c3)C2)cc(OC)c1OC.Cl (single isomer, unassigned; (+)) [Compound C, (+)-1-(2-(3-(3,4-dichloro-phenyl)-1-(3,4,5-trimethoxy-benzoyl)-pyrrolidin-3-yl)-ethyl)-4-phenyl-piperidine-4-carboxylic acid amide hydrochloride, reference compound] | 6.3 µg/mL | 6.0 µg/mL | 5.3 µg/mL | 4.8 µg/mL | 4.0 µg/mL | 3.8 µg/mL | 3.5 µg/mL | 6.2 µg/mL | 5.6 µg/mL | 5.9 µg/mL | 5.2 µg/mL | 4.5 µg/mL | 3.2 µg/mL | 2.5 µg/mL | 8.17 nM | 3.04 nM
COc1ccc(-n2cnnn2)cc1C(=O)N1CC[C@](CCN2CCC(C(N)=O)(c3cccnc3)CC2)(c2ccc(Cl)c(Cl)c2)C1 [Compound B, (R)-1-(2-methoxy-5-(1H-tetrazol-1-yl)benzoyl)-3-(2-(4-(pyrid-3-yl)-4-carboxamidopiperidin-1-yl)ethyl)-3-(3,4-dichlorophenyl)pyrrolidine hydrochloric acid salt] | 6.2 µg/mL | 6.4 µg/mL | 6.4 µg/mL | 6.3 µg/mL | 6.3 µg/mL | 6.3 µg/mL | 6.2 µg/mL | 6.4 µg/mL | 6.6 µg/mL | 6.1 µg/mL | 6.1 µg/mL | 5.7 µg/mL | 5.3 µg/mL | 4.4 µg/mL | 232 nM | 3.15 nM
